This is an account of results in US10562897B2, “Substituted 3,4-dihydro-2H-pyrido[1,2-a]pyrazine-1,6-diones as gamma secretase modulators” (Janssen Pharmaceutica NV, priority 2014, dated 2020).

One data set has as its system Aβ42. The data set is described as follows: In vivo efficacy: brain level of soluble Aβ42, non-transgenic rodents, single oral dose 30 mg/kg, 4 h, MSD electrochemiluminescence, untreated control = 100. The arrangement: species or system mouse. To be noted: for response vs control in vivo at 10 mg/kg / response vs control in vivo at 30 mg/kg: Mus musculus, read-out: Aβ42 (% vs Ctrl) _Mean; for response vs control in vivo at 10 mg/kg: 10 mpk po; for Aβ42 (% vs Ctrl) _Mean: 30 mg/kg. The source says:
(§1) To determine whether acute administration of an Aβ42 lowering agent would reduce Aβ42 levels in vivo, non-transgenic rodents, e.g. mice or rats were used. Animals treated with the Aβ42 lowering agent were examined and compared to those untreated or treated with vehicle and brain levels of soluble Aβ42, Aβ40, Aβ38, and Aβ37 were quantitated by Meso Scale Discovery's (MSD) electrochemiluminescence detection technology. Treatment periods varied from hours (h) to days and were adjusted based on the results of the Aβ42 lowering once a time course of onset of effect could be established.
(§2) A typical protocol for measuring Aβ42 lowering in vivo is shown but it is only one of many variations that could be used to optimize the levels of detectable Aβ. For example, Aβ42 lowering compounds were formulated in 20% of Captisol® (a sulfobutyl ether of β-cyclodextrin) in water or 20% hydroxypropyl β cyclodextrin. The Aβ42 lowering agents were administered as a single oral dose or by any acceptable route of administration to overnight fasted animals. After 4 h, the animals were sacrificed and Aβ42 levels were analysed.
(§3) Blood was collected by decapitation and exsanguinations in EDTA-treated collection tubes. Blood was centrifuged at 1900 g for 10 minutes (min) at 4° C. and the plasma recovered and flash frozen for later analysis. The brain was removed from the cranium and hindbrain. The cerebellum was removed and the left and right hemisphere were separated. The left hemisphere was stored at −18° C. for quantitative analysis of test compound levels. The right hemisphere was rinsed with phosphate-buffered saline (PBS) buffer and immediately frozen on dry ice and stored at −80° C. until homogenization for biochemical assays.
(§4) Mouse brains from non-transgenic animals were resuspended in 8 volumes of 0.4% DEA (diethylamine)/50 mM NaCl containing protease inhibitors (Roche-11873580001 or 04693159001) per gram of tissue, e.g. for 0.158 g brain, add 1.264 ml of 0.4% DEA. All samples were homogenized in the FastPrep-24 system (MP Biomedicals) using lysing matrix D (MPBio #6913-100) at 6 m/s for 20 seconds. Homogenates were centrifuged at 20800×g for 5 min and supernatants collected. Supernatants were centrifuged at 221.300×g for 50 min. The resulting high speed supernatants were then transferred to fresh eppendorf tubes. Nine parts of supernatant were neutralized with 1 part 0.5 M Tris-HCl pH 6.8 and used to quantify Aβ.
(§5) To quantify the amount of Aβ42, Aβ40, Aβ38, and Aβ37 in the soluble fraction of the brain homogenates, simultaneous specific detection of Aβ42, Aβ40, Aβ38, and Aβ37 was performed using MSD's electro-chemiluminescence multiplex detection technology. In this assay purified monoclonal antibodies specific for Abeta37 (JRD/Aβ37/3), Abeta38 (J&JPRD/Aβ38/5), Abeta40 (JRF/cAβ40/28), and Abeta42 (JRF/cAβ42/26) were coated on MSD 4-plex plates. Briefly, the standards (a dilution of synthetic Aβ42, Aβ40, Aβ38, and Aβ37) were prepared in 1.5 ml Eppendorf tube in Ultraculture, with final concentrations ranging from 10000 to 0.3 pg/m. The samples and standards were co-incubated with Sulfo-tag labelled JRF/rAß/2 antibody to the N-terminus of Aβ as detector antibody. 50 μl of conjugate/sample or conjugate/standards mixtures were then added to the antibody-coated plate. The plate was allowed to incubate overnight at 4° C. in order to allow formation of the antibody-amyloid complex. Following this incubation and subsequent wash steps the assay was finished by adding read buffer according to the manufacturer's instructions (Meso Scale Discovery, Gaitherburg, Md.).
(§6) The SULFO-TAG emits light upon electrochemical stimulation initiated at the electrode. MSD Sector instrument SI6000 was used for signal read-out.
In this model a Aß42 lowering compared to untreated animals would be advantageous, in particular a Aß42 lowering with at least 10%, more in particular a Aß42 lowering with at least 20%. […]

A further data set concerns Aβ40. The data set is described as follows: In vivo efficacy: brain level of soluble Aβ40, non-transgenic rodents, single oral dose 30 mg/kg, 4 h, MSD electrochemiluminescence, untreated control = 100. The arrangement: species or system mouse. Conditions: for response vs control in vivo at 10 mg/kg / response vs control in vivo at 30 mg/kg: Mus musculus, read-out: Aβ40 (% vs Ctrl) _Mean; for response vs control in vivo at 10 mg/kg: 10 mpk po.
Text: as §1, §2, §3, §4, §5
The SULFO-TAG emits light upon electrochemical stimulation initiated at the electrode. MSD Sector instrument SI6000 was used for signal read-out. […]

A further data set relates to Aβ38. The data set is described as follows: In vivo efficacy: brain level of soluble Aβ38, non-transgenic rodents, single oral dose 30 mg/kg, 4 h, MSD electrochemiluminescence, untreated control = 100. Also noted: species or system mouse. To be noted: for response vs control in vivo at 10 mg/kg / response vs control in vivo at 30 mg/kg: Mus musculus, read-out: Aβ38 (% vs Ctrl) _Mean; for response vs control in vivo at 10 mg/kg: 10 mpk po; for Aβ38 (% vs Ctrl) _Mean: 30 mg/kg.
Text: To determine whether acute administration of an Aβ38 increasing agents would increase Aβ38 levels in vivo, non-transgenic rodents, e.g. mice or rats were used. Animals treated with the Aβ38 increasing agents were examined and compared to those untreated or treated with vehicle and brain levels of soluble Aβ42, Aβ40, Aβ38, and Aβ37 were quantitated by MSD electrochemiluminescence detection technology.
Treatment periods varied from hours (h) to days and were adjusted based on the results of the Aβ38 increase once a time course of onset of effect could be established.
A typical protocol for measuring Aβ38 increase in vivo is shown but it is only one of many variations that could be used to optimize the levels of detectable Aβ. For example, Aβ38 increasing agents were formulated in 20% of Captisol® (a sulfobutyl ether of β-cyclodextrin) in water or 20% hydroxypropyl β cyclodextrin. The Aβ38 increasing agents were administered as a single oral dose or by any acceptable route of administration to overnight fasted animals. After 4 h, the animals were sacrificed and Aβ38 levels were analysed.
as §3, §4
as §5, with “[…].” for “pg/m.”
as §6
In this model a Aß38 increase compared to untreated animals would be advantageous, in particular a Aß38 increase with at least 10%, more in particular a Aß38 increase with at least 20%. […]

Where two headings read alike, the source gives them in different places.

For the compound `Cc1cn(-c2ccc3n(c2=O)CC(C)N(C(C)c2coc4cc(F)c(C(F)(F)F)cc24)C3=O)cn1` (single isomer, unassigned) [Compound 89], the melting point was determined as 230 °C. For the same compound, the response vs control in vivo at 10 mg/kg in the data set with Aβ42 (po) was determined as 58%. In the data set with Aβ40 (po), the response vs control in vivo at 10 mg/kg was 67%. For the same compound, in the data set on Aβ38 (po), the response vs control in vivo at 10 mg/kg amounted to 132%.

`Cc1cn(-c2ccc3n(c2=O)CCN(C(C)c2coc4cc(F)c(Cl)cc24)C3=O)cn1` (single isomer, unassigned) [Compound 61] registered a melting point of 231 °C. Further, the response vs control in vivo at 30 mg/kg with Aβ42 (po, dose 30 mg/kg oral dosing) was 86%. Besides, the response vs control in vivo at 30 mg/kg in the data set with Aβ40 (po, dose 30 mg/kg oral dosing) came out at 90%. Also, the response vs control in vivo at 30 mg/kg in the data set with Aβ38 (po, dose 30 mg/kg oral dosing) is 192%.

In turn, `Cc1cn(-c2ccc3n(c2=O)C[C@@H](C)N(Cc2coc4c(Cl)cc(Cl)cc24)C3=O)cn1` [Compound 74] gave a melting point of 202 °C. Further, in the data set on Aβ42 (po), the response vs control in vivo at 10 mg/kg was determined as 83%. Further, in the data set on Aβ40 (po), the response vs control in vivo at 10 mg/kg was 100%. Moreover, the response vs control in vivo at 10 mg/kg in the data set on Aβ38 (po) was 144%.

In turn, `Cc1cn(-c2ccc3n(c2=O)C[C@@H](C)N(Cc2coc4cc(C(F)(F)F)c(F)cc24)C3=O)cn1` [Compound 85] yielded a melting point of 226 °C. In addition, the response vs control in vivo at 30 mg/kg in the data set with Aβ42 (sc, 30 mpk sc) came to 51%. Besides, the response vs control in vivo at 30 mg/kg in the data set on Aβ40 (sc, 30 mpk sc (footnote *)) turned out to be 69%. Also, the response vs control in vivo at 30 mg/kg in the data set with Aβ38 (sc, 30 mpk sc) amounted to 194%.

As to `Cc1cn(-c2ccc3n(c2=O)CC(C)N(C(C)c2cc(OC4CC4)cc(C(F)(F)F)c2)C3=O)cn1` (stereo not shown) [Compound 48], the “Aβ42 (% vs Ctrl) _Mean” value in the data set on Aβ42 (dose 30 mg/kg oral dosing) was determined as 60 % vs Ctrl. Further, in the data set on Aβ40 (po, dose 30 mg/kg oral dosing), the response vs control in vivo at 30 mg/kg worked out at 91%. Further, the “Aβ38 (% vs Ctrl) _Mean” value with Aβ38 (dose 30 mg/kg oral dosing) is 161 % vs Ctrl.

For `Cc1cn(-c2ccc3n(c2=O)C[C@@H](C)N(Cc2cc(OC4CC4)cc(C(F)(F)F)c2)C3=O)cn1` [Compound 33], the response vs control in vivo at 30 mg/kg was determined as 57% with Aβ42 (po, dose 30 mg/kg oral dosing); 79% in the data set with Aβ40 (po, dose 30 mg/kg oral dosing); 132% in the data set with Aβ38 (po, dose 30 mg/kg oral dosing).

On to `Cc1cn(-c2ccc3n(c2=O)CC(C)N(C(C)c2cc(OC4CC4)cc(C(F)(F)F)c2)C3=O)cn1` (stereo not shown) [Compound 49], for which, in the data set with Aβ42 (dose 30 mg/kg oral dosing), the “Aβ42 (% vs Ctrl) _Mean” value is on record as 85 % vs Ctrl. Besides, in the data set with Aβ40 (dose 30 mg/kg oral dosing, 30 mg/kg), the “Aβ40 (% vs Ctrl) _Mean” value is given as 101 % vs Ctrl. In addition, the “Aβ38 (% vs Ctrl) _Mean” value in the data set on Aβ38 (dose 30 mg/kg oral dosing) was found to be 123 % vs Ctrl.

`Cc1cn(-c2ccc3n(c2=O)C[C@@H](C)N(Cc2coc4ccc(Cl)cc24)C3=O)cn1` [Compound 55]: the response vs control in vivo at 30 mg/kg in the data set on Aβ42 (po, dose 30 mg/kg oral dosing) is 93%; in the data set on Aβ40 (po, dose 30 mg/kg oral dosing), 113%; with Aβ38 (po, dose 30 mg/kg oral dosing), 142%.

Consider `Cc1cn(-c2ccc3n(c2=O)C[C@@H](C)N(CC2(c4cc(OC5CC5)cc(C(F)(F)F)c4)CC2)C3=O)cn1` [Compound 53], for which the response vs control in vivo at 30 mg/kg was 120% with Aβ42 (po, dose 30 mg/kg oral dosing); 121% in the data set on Aβ40 (po, dose 30 mg/kg oral dosing); 124% in the data set with Aβ38 (po, dose 30 mg/kg oral dosing).

Take `Cc1cn(-c2ccc3n(c2=O)CC(C)N(C(C)c2coc4ccc(Cl)cc24)C3=O)cn1` (single isomer, unassigned) [Compound 57]: the response vs control in vivo at 30 mg/kg turned out to be 100% with Aβ42 (sc, 30 mpk sc); 105% with Aβ40 (sc, 30 mpk sc (footnote *)); 134% in the data set with Aβ38 (sc, 30 mpk sc).

Consider `Cc1cn(-c2ccc3n(c2=O)CC(C)N(Cc2cc4c(s2)CCC(C(F)(F)F)C4)C3=O)cn1` (stereo not shown) [Compound 34], for which the response vs control in vivo at 30 mg/kg with Aβ42 (po, dose 30 mg/kg oral dosing) amounted to 104%; with Aβ40 (po, dose 30 mg/kg oral dosing), 128%; in the data set on Aβ38 (po, dose 30 mg/kg oral dosing), 102%.

Regarding `Cc1cn(-c2ccc3n(c2=O)CC(C)N(Cc2ccc(C)c(N4CC5CC5C4)c2)C3=O)cn1` (stereo not shown) [Compound 30], the response vs control in vivo at 30 mg/kg turned out to be 118% in the data set with Aβ42 (po, dose 30 mg/kg oral dosing); 126% with Aβ40 (po, dose 30 mg/kg oral dosing); 121% with Aβ38 (po, dose 30 mg/kg oral dosing).

Take `Cc1cn(-c2ccc3n(c2=O)CC(C)N(Cc2csc4c2CC(C(F)(F)F)CC4)C3=O)cn1` (stereo not shown) [Compound 35]: the response vs control in vivo at 30 mg/kg was determined as 112% with Aβ42 (po, dose 30 mg/kg oral dosing); 108% in the data set with Aβ40 (po, dose 30 mg/kg oral dosing); 116% with Aβ38 (po, dose 30 mg/kg oral dosing).

As a reminder, the melting point is the temperature of the solid-liquid transition.
